Experimental findings from patent publication US20110224210A1, “NOVEL BIS-AMIDES AS ANTI-MALARIAL AGENTS” (priority 2008, published 2011) are described below.

The assay has as its system P. falciparum K1 (strain resistant to chloroquine and pyrimethamine), erythrocytic stages. Nature of the assay: Plasmodium falciparum in vitro assay, [3H] hypoxanthine incorporation. In kind it is cell-based. Conditions: Plasmodium falciparum, K1, P. falciparum strain K1; [3H] hypoxanthine incorporation; read-out: IC50 (nM) on K1. Put shortly: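 Chloroquine/pyrimethamine-resistant K1 erythrocytic cultures (2.5% haematocrit, 0.3% parasitaemia, hypoxanthine-free RPMI with Albumax) exposed to seven doubling dilutions at 37 °C under low O2.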

One may read the IC50 as the concentration needed to halve the response being measured. As for `O=C([C@H](Cc1ccccc1)N(Cc1ccc(N2CCOCC2)nc1)C(=O)C=Cc1ccc(C(F)(F)F)nc1)N1CCC(Cc2ccccc2)CC1` [Example 144, (S)-N-[1-Benzyl-2-(4-benzyl-piperidin-1-yl)-2-oxo-ethyl]-N-(6-morpholin-4-yl-pyridin-3-ylmethyl)-3-(6-trifluoromethyl-pyridin-3-yl)-acrylamide], the IC50 was found to be 24 nM.

Take `COc1ccc(C=CC(=O)N(Cc2ccc(N3CCOCC3)nc2)[C@@H](Cc2ccccc2)C(=O)N2CCC(Cc3ccccc3)CC2)cc1` [Example 145, (S)-N-[1-Benzyl-2-(4-benzyl-piperidin-1-yl)-2-oxo-ethyl]-3-(4-methoxy-phenyl)-N-(6-morpholin-4-yl-pyridin-3-ylmethyl)-acrylamide]: the IC50 was 5 nM.

For `Cc1ccc(C=CC(=O)N(Cc2ccc(N3CCOCC3)nc2)[C@@H](Cc2ccccc2)C(=O)N2CCC(Cc3ccccc3)CC2)cc1` [Example 146, (S)-N-[1-Benzyl-2-(4-benzyl-piperidin-1-yl)-2-oxo-ethyl]-N-(6-morpholin-4-yl-pyridin-3-ylmethyl)-3-p-tolyl-acrylamide], the 50% inhibitory concentration (IC50) was 9 nM.

`Cc1ccc(C=CC(=O)N(Cc2ccc(N3CCOCC3)nc2)[C@@H](Cc2ccccc2)C(=O)N2CCOCC2)cc1` [Example 147, (S)-N-(1-Benzyl-2-morpholin-4-yl-2-oxo-ethyl)-N-(6-morpholin-4-yl-pyridin-3-ylmethyl)-3-p-tolyl-acrylamide]: the IC50 is 77 nM.

For `COc1ccc(C=CC(=O)N(Cc2ccc(N3CCOCC3)nc2)[C@@H](Cc2ccccc2)C(=O)N2CCOCC2)cc1` [Example 148, (S)-N-(1-Benzyl-2-morpholin-4-yl-2-oxo-ethyl)-3-(4-methoxy-phenyl)-N-(6-morpholin-4-yl-pyridin-3-ylmethyl)-acrylamide], the IC50 was 65 nM.

For `O=C([C@H](Cc1ccccc1)N(Cc1ccc(-c2ccccn2)cc1)C(=O)C=Cc1ccc(C(F)(F)F)cc1)N1CCc2cccnc2C1` [Example 149, (S)-N-[1-Benzyl-2-(5,8-dihydro-6H-[1,7]naphthyridin-7-yl)-2-oxo-ethyl]-N-(4-pyridin-2-yl-benzyl)-3-(4-trifluoromethyl-phenyl)-acrylamide], the IC50 worked out at 26 nM.

`CCCCN(CCCC)CCNC(=O)[C@H](Cc1ccccc1)N(Cc1ccc(-c2ccccn2)cc1)C(=O)C=Cc1ccc(C(F)(F)F)cc1` [Example 150]: the IC50 stood at 319 nM.

Consider `O=C(NCCN1CCOCC1)[C@H](Cc1ccccc1)N(Cc1ccc(-c2ccccn2)cc1)C(=O)C=Cc1ccc(C(F)(F)F)cc1` [Example 151], for which the IC50 was determined as 373 nM.

As to `O=C(NCCN1CCCCC1)[C@H](Cc1ccccc1)N(Cc1ccc(-c2ccccn2)cc1)C(=O)C=Cc1ccc(C(F)(F)F)cc1` [Example 153], the IC50 worked out at 268 nM.

In the case of `O=C(NCCN1CCCCCC1)[C@H](Cc1ccccc1)N(Cc1ccc(-c2ccccn2)cc1)C(=O)C=Cc1ccc(C(F)(F)F)cc1` [Example 154], the IC50 turned out to be 420 nM.

With `CC(C)N(CCNC(=O)[C@H](Cc1ccccc1)N(Cc1ccc(-c2ccccn2)cc1)C(=O)C=Cc1ccc(C(F)(F)F)cc1)C(C)C` [Example 155], the IC50 is 327 nM.

`CN(C)CCNC(=O)[C@H](Cc1ccccc1)N(Cc1ccc(-c2ccccn2)cc1)C(=O)C=Cc1ccc(C(F)(F)F)cc1` [Example 156]: the IC50 was determined as 382 nM.

For the compound `COCCN(C)C(=O)[C@H](Cc1ccccc1)N(Cc1ccc(N2CCOCC2)nc1)C(=O)C=Cc1ccc(C(F)(F)F)cc1` [Example 157, (S)-N-{1-[(2-Methoxy-ethyl)-methyl-carbamoyl]-2-phenyl-ethyl}-N-(6-morpholin-4-yl-pyridin-3-ylmethyl)-3-(4-trifluoromethyl-phenyl)-acrylamide], the IC50 is 10 nM.

`COCCN(C)C(=O)[C@H](Cc1ccccc1)N(Cc1ccc(N2CCOCC2)nc1)C(=O)C=Cc1ccc(C)cc1` [Example 158, (S)-N-{1-[(2-Methoxy-ethyl)-methyl-carbamoyl]-2-phenyl-ethyl}-N-(6-morpholin-4-yl-pyridin-3-ylmethyl)-3-p-tolyl-acrylamide]: the IC50 turned out to be 24 nM.

In the case of `COCCN(C)C(=O)[C@H](Cc1ccccc1)N(Cc1ccc(N2CCOCC2)nc1)C(=O)C=Cc1ccc(OC)cc1` [Example 159, (S)-N-{1-[(2-Methoxy-ethyl)-methyl-carbamoyl]-2-phenyl-ethyl}-3-(4-methoxy-phenyl)-N-(6-morpholin-4-yl-pyridin-3-ylmethyl)-acrylamide], the IC50 was 49 nM.

As to `COCCN(C)C(=O)[C@H](Cc1ccccc1)N(Cc1ccccc1)C(=O)C=Cc1ccc(C)cc1` [Example 160, (S)-N-Benzyl-N-{1-[(2-methoxy-ethyl)-methyl-carbamoyl]-2-phenyl-ethyl}-3-p-tolyl-acrylamide], the IC50 turned out to be 93 nM.

Turning to `CCc1ccc(CN(C(=O)C=Cc2ccc(C)cc2)[C@@H](Cc2ccccc2)C(=O)N(C)CCOC)cc1` [Example 161, (S)-N-(4-Ethyl-benzyl)-N-{1-[(2-methoxy-ethyl)-methyl-carbamoyl]-2-phenyl-ethyl}-3-p-tolyl-acrylamide], the IC50 turned out to be 49 nM.

As for `COCCN(C)C(=O)[C@H](Cc1ccccc1)N(Cc1ccccn1)C(=O)C=Cc1ccc(C)cc1` [Example 162, (S)-N-{1-[(2-Methoxy-ethyl)-methyl-carbamoyl]-2-phenyl-ethyl}-N-pyridin-2-ylmethyl-3-p-tolyl-acrylamide], the IC50 was found to be 45 nM.

In the case of `COCCN(C)C(=O)[C@H](Cn1cccc1)N(Cc1ccc(-c2ccccn2)cc1)C(=O)C=Cc1ccc(C(F)(F)F)cc1` [Example 163, (S)-N-{1-[(2-Methoxy-ethyl)-methyl-carbamoyl]-2-pyrrol-1-yl-ethyl}-N-(4-pyridin-2-yl-benzyl)-3-(4-trifluoromethyl-phenyl)-acrylamide], the IC50 turned out to be 37 nM.

As for `CN(C)CCN(C)C(=O)[C@H](Cc1ccccc1)N(Cc1ccc(-c2ccccn2)cc1)C(=O)C=Cc1ccc(C(F)(F)F)cc1` [Example 171, (S)-N-{1-[(2-Dimethylamino-ethyl)-methyl-carbamoyl]-2-phenyl-ethyl}-N-(4-pyridin-2-yl-benzyl)-3-(4-trifluoromethyl-phenyl)-acrylamide], the IC50 worked out at 80 nM.

Consider `CN(C(=O)[C@H](Cc1ccccc1)N(Cc1ccc(-c2ccccn2)cc1)C(=O)C=Cc1ccc(C(F)(F)F)cc1)[C@H]1CCN(Cc2ccccc2)C1` [Example 172, N-{1-[((S)-1-Benzyl-pyrrolidin-3-yl)-methyl-carbamoyl]-(S)-2-phenyl-ethyl}-N-(4-pyridin-2-yl-benzyl)-3-(4-trifluoromethyl-phenyl)-acrylamide], for which the IC50 is 89 nM.

`CN(C(=O)[C@H](Cc1ccccc1)N(Cc1ccc(-c2ccccn2)cc1)C(=O)C=Cc1ccc(C(F)(F)F)cc1)[C@@H]1CCN(Cc2ccccc2)C1` [Example 173, N-{1-[((R)-1-Benzyl-pyrrolidin-3-yl)-methyl-carbamoyl]-(S)-2-phenyl-ethyl}-N-(4-pyridin-2-yl-benzyl)-3-(4-trifluoromethyl-phenyl)-acrylamide]: the IC50 came to 52 nM.

In the case of `CN(C)CCN(Cc1ccccc1)C(=O)[C@H](Cc1ccccc1)N(Cc1ccc(-c2ccccn2)cc1)C(=O)C=Cc1ccc(C(F)(F)F)cc1` [Example 174], the IC50 turned out to be 430 nM.

In the case of `CN(CCO)C(=O)[C@H](Cc1ccccc1)N(Cc1ccc(N2CCOCC2)cc1)C(=O)C=Cc1ccc(C(F)(F)F)cc1` [Example 175, (S)-N-{1-[(2-Hydroxy-ethyl)-methyl-carbamoyl]-2-phenyl-ethyl}-N-(4-morpholin-4-yl-benzyl)-3-(4-trifluoromethyl-phenyl)-acrylamide], the IC50 was determined as 88 nM.

Consider `CC(=O)N1CCN(c2ccc(CN(C(=O)C=Cc3ccc(C(F)(F)F)cc3)[C@@H](Cc3ccccc3)C(=O)N(C)CCO)cc2)CC1` [Example 176, (S)-N-[4-(4-Acetyl-piperazin-1-yl)-benzyl]-N-{1-[(2-hydroxy-ethyl)-methyl-carbamoyl]-2-phenyl-ethyl}-3-(4-trifluoromethyl-phenyl)-acrylamide], for which the IC50 came out at 51 nM.

As to `COc1ccc(CN(C)C(=O)[C@H](Cc2ccccc2)N(Cc2ccc(N3CCOCC3)cc2)C(=O)C=Cc2ccc(C(F)(F)F)nc2)cc1` [Example 177, (S)-N-{1-[(4-Methoxy-benzyl)-methyl-carbamoyl]-2-phenyl-ethyl}-N-(4-morpholin-4-yl-benzyl)-3-(6-trifluoromethyl-pyridin-3-yl)-acrylamide], the IC50 is 84 nM.

For `COCCN(C)C(=O)[C@H](Cc1ccccc1)N(Cc1ccc(N2CCN(C(C)=O)CC2)cc1)C(=O)C=Cc1ccc(C(F)(F)F)cc1` [Example 178, (S)-N-[4-(4-Acetyl-piperazin-1-yl)-benzyl]-N-{1-[(2-methoxy-ethyl)-methyl-carbamoyl]-2-phenyl-ethyl}-3-(4-trifluoromethyl-phenyl)-acrylamide], the IC50 is 10 nM.

Turning to `COCCN(C)C(=O)[C@H](Cc1ccccc1)N(Cc1ccc(N2CCOCC2)cc1)C(=O)C=Cc1ccc(C(F)(F)F)cc1` [Example 179, (S)-N-{1-[(2-Methoxy-ethyl)-methyl-carbamoyl]-2-phenyl-ethyl}-N-(4-morpholin-4-yl-benzyl)-3-(4-trifluoromethyl-phenyl)-acrylamide, formic acid], the IC50 came out at 9 nM.

In the case of `CC(=O)N1CCN(c2ccc(CN(C(=O)C=Cc3ccc(C(F)(F)F)cc3)[C@@H](Cc3ccccc3)C(=O)N(C)CCOc3ncccn3)cc2)CC1` [Example 180, (S)-N-[4-(4-Acetyl-piperazin-1-yl)-benzyl]-N-(1-{methyl-[2-(pyrimidin-2-yloxy)-ethyl]-carbamoyl}-2-phenyl-ethyl)-3-(4-trifluoromethyl-phenyl)-acrylamide], the IC50 came out at 38 nM.

In the case of `CC(=O)N1CCN(c2ccc(CN(C(=O)C=Cc3ccc(C(F)(F)F)cc3)[C@@H](Cc3ccccc3)C(=O)N(C)CCOCc3ccccc3)cc2)CC1` [Example 181, (S)-N-[4-(4-Acetyl-piperazin-1-yl)-benzyl]-N-{1-[(2-benzyloxy-ethyl)-methyl-carbamoyl]-2-phenyl-ethyl}-3-(4-trifluoromethyl-phenyl)-acrylamide], the IC50 is 10 nM.
